The pIC50 is the negative decadic logarithm of the IC50, by convention in mol/L. For orientation: viability, T/C means the result in the treated group divided by that in the control group, in per cent.

Drawing on PubChem BioAssay AID2060613 (Molecular Pharmacology Branch, DTP, NCI, 2025), this text covers IC50 and viability, T/C for five compounds.

The test has as its system 233499-124-R-J3-PDC complex spheroid viability. The test is described as follows: Anticancer human tumor 233499-124-R-J3-PDC patient-derived colon adenocarcinoma cell line growth inhibition [CLK]. To be noted: for viability, T/C: stronger effect = lower value. In a few lines: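 Patient-derived tumor cells grown as complex spheroids with HUVEC endothelial cells and mesenchymal stem cells, treated with drug combinations. Concentrations descend in half-log steps from near clinical Cmax, or from 10 microM if Cmax unknown.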

The mark [1] stands for this setting: curve of first compound, second compound 0.0316 µM.
[2] abbreviates: curve of first compound, second compound 0.1 µM.
Where [3] appears, read: curve of first compound, second compound 0.316 µM.
Where [4] appears, read: curve of first compound, second compound 1 µM.
Where [5] appears, read: curve of first compound, second compound 3.16 µM.
[6] abbreviates: curve of first compound, second compound 10 µM.

pIC50: −log10 of the molar value. “And” between values parts separate entries of the source, which are not always exact repeats. Equal entries are not always repeated.
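Further: spheroids exposed to the drug combinations for seven days.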
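Wherever viability, T/C is given: percent viability relative to DMSO vehicle control wells taken as 100%.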

Turning to `C=CC(=O)Nc1cc(Nc2nccc(-c3cn(C)c4ccccc34)n2)c(OC)cc1N(C)CCN(C)C` + CNC(=O)c1ccc(Nc2nc(OC3CCCC3)c3c(-c4ccc5nc(C)oc5c4)c[nH]c3n2)c(OC)c1, the pIC50 is, setting by setting: under setting [1], less than 6.52; under setting [2], less than 6.52; under setting [3], less than 6.52; under setting [4], less than 6.52; under setting [5], less than 6.52; under setting [6], less than 6.52. The viability, T/C was 70.1% (second compound 0.0316 µM, first compound 0.000949 µM); 97% (second compound 0.0316 µM, first compound 0.003 µM); 76.7% (second compound 0.0316 µM, first compound 0.00949 µM); 91% (second compound 0.0316 µM, first compound 0.03 µM); 94.9% (second compound 0.0316 µM, first compound 0.0949 µM); 71.8% (second compound 0.0316 µM, first compound 0.3 µM). The viability, T/C is 69.8% (second compound 0.1 µM, first compound 0.000949 µM); 80.8% (second compound 0.1 µM, first compound 0.003 µM); 77.9% (second compound 0.1 µM, first compound 0.00949 µM); 74.8% (second compound 0.1 µM, first compound 0.03 µM); 81.5% (second compound 0.1 µM, first compound 0.0949 µM); 77.1% (second compound 0.1 µM, first compound 0.3 µM). The viability, T/C by setting is: (second compound 0.316 µM, first compound 0.000949 µM) 70%; (second compound 0.316 µM, first compound 0.003 µM) 86%; (second compound 0.316 µM, first compound 0.00949 µM) 69.2%; (second compound 0.316 µM, first compound 0.03 µM) 68.4%; (second compound 0.316 µM, first compound 0.0949 µM) 76.6%; (second compound 0.316 µM, first compound 0.3 µM) 78.3%. In addition, the viability, T/C by setting is: (second compound 1 µM, first compound 0.000949 µM) 78.7%; (second compound 1 µM, first compound 0.003 µM) 76.2%; (second compound 1 µM, first compound 0.00949 µM) 75.3%; (second compound 1 µM, first compound 0.03 µM) 82.5%; (second compound 1 µM, first compound 0.0949 µM) 69.9%; (second compound 1 µM, first compound 0.3 µM) 73.3%. The viability, T/C runs as follows: (second compound 3.16 µM, first compound 0.000949 µM) 55.5%; (second compound 3.16 µM, first compound 0.003 µM) 71.3%; (second compound 3.16 µM, first compound 0.00949 µM) 81.4%; (second compound 3.16 µM, first compound 0.03 µM) 65.8%; (second compound 3.16 µM, first compound 0.0949 µM) 79.7%; (second compound 3.16 µM, first compound 0.3 µM) 67.7%. Besides, the viability, T/C reads like this: (second compound 10 µM, first compound 0.000949 µM) 73.5%; (second compound 10 µM, first compound 0.003 µM) 62.2%; (second compound 10 µM, first compound 0.00949 µM) 76.9%; (second compound 10 µM, first compound 0.03 µM) 74.8%; (second compound 10 µM, first compound 0.0949 µM) 69.6%; (second compound 10 µM, first compound 0.3 µM) 61.7%.

In the case of `CCCS(=O)(=O)Nc1ccc(F)c(C(=O)c2c[nH]c3ncc(-c4ccc(Cl)cc4)cc23)c1F` + CN1CCN(c2cc(C(=O)Nc3cc4cc(-c5cnn(C)c5)ccc4cn3)ccn2)CC1, the negative-log IC50 (pIC50) was less than 5.00 under setting [1]; less than 5.00 under setting [2]; 5.09 under setting [3]; greater than 7.50 under setting [4]; greater than 7.50 under setting [5]; greater than 7.50 under setting [6]. Also, the viability, T/C is 103% (second compound 0.0316 µM, first compound 0.0316 µM); 98.2% (second compound 0.0316 µM, first compound 0.1 µM); 101% (second compound 0.0316 µM, first compound 0.316 µM); 99.8% (second compound 0.0316 µM, first compound 1 µM); 97.2% (second compound 0.0316 µM, first compound 3.16 µM); 92.4% (second compound 0.0316 µM, first compound 10 µM). Also, the viability, T/C runs as follows: (second compound 0.1 µM, first compound 0.0316 µM) 98.5%; (second compound 0.1 µM, first compound 0.1 µM) 103%; (second compound 0.1 µM, first compound 0.316 µM) 103%; (second compound 0.1 µM, first compound 1 µM) 106%; (second compound 0.1 µM, first compound 3.16 µM) 109%; (second compound 0.1 µM, first compound 10 µM) 92.2%. The viability, T/C is, setting by setting: (second compound 0.316 µM, first compound 0.0316 µM) 96.7%; (second compound 0.316 µM, first compound 0.1 µM) 96.9%; (second compound 0.316 µM, first compound 0.316 µM) 91.8%; (second compound 0.316 µM, first compound 1 µM) 89.3%; (second compound 0.316 µM, first compound 3.16 µM) 99.9%; (second compound 0.316 µM, first compound 10 µM) 39.5%. For the same compound, the viability, T/C reads like this: (second compound 1 µM, first compound 0.0316 µM) 1.29%; (second compound 1 µM, first compound 0.1 µM) 4.3%; (second compound 1 µM, first compound 0.316 µM) 5.03%; (second compound 1 µM, first compound 1 µM) 0.45%; (second compound 1 µM, first compound 3.16 µM) 0.8%; (second compound 1 µM, first compound 10 µM) 1.4%. The viability, T/C is 0.42% (second compound 3.16 µM, first compound 0.0316 µM); 0.62% (second compound 3.16 µM, first compound 0.1 µM); 1.12% (second compound 3.16 µM, first compound 0.316 µM); 0.53% (second compound 3.16 µM, first compound 1 µM); 0.63% (second compound 3.16 µM, first compound 3.16 µM); 0.92% (second compound 3.16 µM, first compound 10 µM). Moreover, the viability, T/C by setting is: (second compound 10 µM, first compound 0.0316 µM) 0.24%; (second compound 10 µM, first compound 0.1 µM) 0.32%; (second compound 10 µM, first compound 0.316 µM) 1.24%; (second compound 10 µM, first compound 1 µM) 0.33%; (second compound 10 µM, first compound 3.16 µM) 0.36%; (second compound 10 µM, first compound 10 µM) 0.85%.

Consider `CC(C)CC(NC(=O)C(Cc1ccccc1)NC(=O)c1cnccn1)B(O)O` (stereo not given), for which the viability, T/C by setting is: (compound 0.000949 µM) 101% and 106%; (compound 0.003 µM) 88.8% and 88.5%; (compound 0.00949 µM) 0.33% and 0.18%; (compound 0.03 µM) 0.31% and 0.22%; (compound 0.0949 µM) 0.13% and 0.2%; (compound 0.3 µM) 0.14% and 0.2%. In addition, the pIC50 (curve of compound) was 8.30.

As for `COc1cccc2c1C(=O)c1c(O)c3c(c(O)c1C2=O)CC(O)(C(=O)CO)CC3OC1CC(N)C(O)C(C)O1` (stereo not given), the viability, T/C reads like this: (compound 0.0316 µM) 92.5% and 101%; (compound 0.1 µM) 99% and 94.5%; (compound 0.316 µM) 81.5% and 67.5%; (compound 1 µM) 72.2% and 48.1%; (compound 3.16 µM) 45.6% and 21.7%; (compound 10 µM) 17.3% and 17.5%. In addition, where the note is “curve of compound”, the pIC50 was 5.58 and 6.11.

For `Nc1ccccc1NC(=O)c1ccc(CNC(=O)OCc2cccnc2)cc1`, the viability, T/C is, setting by setting: (compound 0.0316 µM) 91.4% and 90.3%; (compound 0.1 µM) 87.2% and 89.8%; (compound 0.316 µM) 74.4% and 96.3%; (compound 1 µM) 78% and 89.7%; (compound 3.16 µM) 32.4% and 33.4%; (compound 10 µM) 0.79% and 1.47%. Further, the pIC50 (curve of compound) was 5.70 and 5.65.
